Measured values reported in patent US20180231524A1, “IN VITRO METHODS OF IDENTIFYING MODULATORS OF NEUROMUSCULAR JUNCTION ACTIVITY” (MEMORIAL SLOAN-KETTERING CANCER CENTER, priority 2015, published 2018).

Legend:
[1] = test system: light-responsive skeletal myotubes in neuromuscular co-cultures; assay: sharp electrode recording of light-induced myofiber action potentials; format: cell-based, human; conditions: 2 μM; 447 nm optogenetic stimulation 0.2 to 2 Hz
Procedure: (§1) We next characterized key physiologic parameters in the functional neuromuscular cultures. Matured co-cultures were incubated with the calcium dye Fura2 and mounted into an imaging chamber for continuous perfusion. […] The lower panel of FIG. 3J confirms long-term stability of neuro-muscular excitability in a calcium imaging experiment over 45 minutes. In a separate study, skeletal myotubes (n=5), identified by their cylindrical and striated appearance under phase contrast microscopy and by their ability to undergo light-induced twitching were selected for intracellular recordings (FIG. 3K). Light-responsive myotubes were impaled with sharp electrodes and muscle APs were recorded during 447 nm optogenetic stimulation at frequencies from 0.2 to 2 Hz. Spike fidelity was 100% at 0.2 Hz, 93.3±6.7% at 0.5 Hz, 75±15.0% at 1 Hz and 80±10.0% at 2 Hz. […] To address the stability of neuromuscular connectivity over the course of several days and weeks, contractile regions (n=7) were assessed every 5 days.
On matured EYFP+ MNs whole-cell current clamp recordings were performed at room temperature. Light-evoked APs were elicited using a 447 nm diode laser (OEM Laser) with light pulses of 5 ms at approximately 1 mW/mm2. Myotubes contracting in response to light stimulation were impaled with a sharp electrode for intracellular recordings.

[2] = test system: co-cultures of ChR2-expressing hESC-derived spinal motorneurons with human adult (hMA) and fetal (hMF) myofibers; assay: light-induced muscle twitches in neuromuscular co-cultures; format: cell-based; conditions: 2 μM, optogenetic stimulation 470 nm, all tested cultures
Procedure: To establish the neuromuscular co-culture, we used the purified ChR2-expressing spinal motorneurons (day 20-25) and plated them onto pre-differentiated skeletal myofibers (day 5-10). After plating, hESC-derived spinal MN cell bodies mostly remained within the neuronal clusters but extended axons across the adult and fetal muscle (up to 2 mm within the first week, FIG. 3A, E). Co-cultures were tested for the establishment of neuromuscular connectivity in weekly intervals. For this purpose the cultures were observed under bright field illumination and intermittently stimulated with blue light pulses. Six to eight weeks after initiation of the co-culture, the elongated cylindrical myoblast-derived muscle fibers remained morphologically intact and started to contract in response optogenetic stimulation (470 nm, 0.2 Hz, 300 ms pulse width). FIGS. 3B, F show mature co-cultures with both muscle types. FIG. 3C, G show the quantification of muscle twitches of individual fibers from such cultures. The lower panels show long term experiments over 8.5 min (FIG. 3C at 0.2 Hz, FIG. 3G at 0.1 Hz). […]
(§2) Maturing co-cultures were observed under 10× brightfield illumination while intermittently opening the shutter for fluorescent light (470 nm, 2mW/mm^2, approx. 300 ms pulse). […] For the quantification of movement multiple representative high contrast regions were automatically traced (MetaMorph Software).

[3] = test system: myofibers in functional neuromuscular co-cultures; assay: calcium imaging in neuromuscular co-cultures under optogenetic stimulation; format: cell-based, human; conditions: 470 nm optogenetic stimulation, Fura2; 6/6 cultures
Procedure: as §1
(§3) Myotubes or co-cultures on glass coverslips were incubated with the ratiometric calcium dye Fura-2 and imaged under continuous perfusion in normal Tyrode's solution. Myotubes were stimulated by acetylcholine. Co-cultures were illuminated for optogenetic stimulation for 10 ms at 470 nm (4 mW/mm2) every 5 s.

[4] = test system: co-cultures of MNs with adult-derived myoblasts (hMA); assay: myasthenia gravis model: light-induced muscle contraction in co-cultures; format: cell-based, human; conditions: PYR 10 μM on day 3; cultures treated with MG IgG (#1 & 2 combined) and complement; n=8
From the text: Next we sought to address whether the functional neuromuscular co-cultures were suitable to model a classic human neuromuscular disease. Myasthenia gravis (MG) (Toyka et al., 1977; Verschuuren et al., 2013) is caused by the emergence of autoantibodies against proteins in the neuromuscular junction (e.g. the acetylcholine receptor, AChR). Binding of the pathogenic antibody to AChR activates the complement cascade, resulting in destruction of the neuromuscular endplate (Sahashi et al., 1980), which ultimately causes progressive muscle weakness in patients. We therefore quantified light-induced muscle contractions in functional co-cultures of MNs with adult-derived myoblasts (hMA) before (FIG. 4A, D) and after the incubation with IgG fractions (200 nM total IgG) from two MG patients with clearly elevated AChR antibody titers (#1 and #2). Sandoglobulin (SG) polyvalent IgG served as control. […] Next, we assessed if the myasthenic phenotype was reversible after washout of MG IgG and complement, mimicking plasmapheresis therapy (Gold et al., 2008). […]
as §2, with “Software). […]” for “Software).”

[5] = test system: myofibers in MN co-cultures with adult muscle (hMA); assay: myasthenia gravis model: calcium imaging; format: cell-based, human; conditions: MG#1 IgG and complement cultures
Procedure: To further characterize the myasthenic phenotype we performed calcium imaging experiments. […] Therefore cultures were pretreated with control and MG#1 IgG and human complement for 2 days. Calcium imaging was performed in regions with similar amounts of muscle fibers and dense innervation (FIG. 4K, L). […] In addition, the percentage of reactive fibers was reduced in cultures treated with MG#1 IgG and complement compared to controls (FIG. 4N, CTRL 78% vs. MG 32%, two-tailed unpaired t test, p<0.001, t=4.79). […] Finally we sought to confirm the complement attack on the neuromuscular junction. For this purpose, cultures treated with MG#1 IgG and human complement as well as cultures treated with CTRL IgG and human complement for 24 h were stained with an antibody recognizing the human complement fragment C3c. […] (FIG. 4O, P).
as §3
Serum (containing complement) from 5 healthy donors was pooled and added to the media where indicated (2% v/v). […]

rodent GSK3β homologs = conditions: cited from earlier work

Question: For CC(=O)O[C@H]1C[C@@H]2CC[C@@H]3[C@H](CC[C@@]4(C)[C@H]3C[C@H]([N+]3(C)CCCCC3)[C@@H]4OC(C)=O)[C@@]2(C)C[C@@H]1N1CCCCC1 [vecuronium], which “light-induced APs in myofibers” value [1] is on record?
Answer: The value was “completely blocked light-induced APs in myofibers in a reversible manner”.

Question: What about the “light induced muscle twitches” value [2] of the same compound?
Answer: The value was “completely blocked”.

Question: What about the “light induced muscle twitches” value ([2]; listed as Vecuronium) of the same compound?
Answer: Its value is “blocks light-evoked contractility”.

Question: What about the “light-evoked calcium spikes in myofibers” value [3] of the same compound?
Answer: The value was “could be blocked”.

Question: With CN(C)C(=O)Oc1ccc[n+](C)c1 [pyridostigmine] as the compound, how does the “change of movement after pyridostigmine in MG cultures” value [4] read?
Answer: Its value is “+22%”.

Question: And the “percentage of reactive fibers after PYR in MG cultures” value [5]?
Answer: The value was “tendency towards a higher percentage of reactive fibers, which did not reach significance”.

Question: What about the “light-induced calcium spike after PYR in MG cultures” value ([5]; n=8) of the same compound?
Answer: Its value is “small but significant increase”.

Question: For Cc1c[nH]c(-c2cnc(NCCNc3ccc(C#N)cn3)nc2-c2ccc(Cl)cc2Cl)n1 [CHIR99021, 6-(2-(4-(2,4-dichlorophenyl)-5-(4-methyl-1H-imidazol-2-yl)pyrimidin-2-ylamino)ethylamino)nicotinonitrile], which “IC50 values against rodent GSK3β homologs” value (rodent GSK3β homologs) is on record?
Answer: Its value is “nanomolar”.
